# In PubChem BioAssay AID2060486 (Molecular Pharmacology Branch, DTP, NCI, 2025):
# pIC50: −log10 of the molar value.
# Tested on: IGROV1 complex spheroids (HUVEC, MSC), viability % test/control
# Assay: Anticancer human tumor IGROV1 cell line growth inhibition [GQUAD];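 further: spheroids exposed to compounds for 7 days before readout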;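 on viability, T/C: 100% = DMSO vehicle control viability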
# Settings: for pIC50: curve of first compound; for viability, T/C: stronger effect = lower value
# In short: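 Tumor cells were grown as complex spheroids with HUVEC endothelial cells and mesenchymal stem cells as stroma. G-quadruplex stabilizers were combined with targeted agents over half-log dilutions from near the clinical Cmax, or from 10 microM.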
# [1] = second compound 0.0316 µM, first compound 0.0316 µM
# [2] = second compound 0.0316 µM, first compound 0.316 µM
# [3] = second compound 0.1 µM, first compound 0.0316 µM
# [4] = second compound 0.1 µM, first compound 0.316 µM
# [5] = second compound 0.316 µM, first compound 0.0316 µM
# [6] = second compound 0.316 µM, first compound 0.316 µM
# [7] = second compound 1 µM, first compound 0.0316 µM
# [8] = second compound 1 µM, first compound 0.316 µM
# [9] = second compound 3.16 µM, first compound 0.0316 µM
# [10] = second compound 3.16 µM, first compound 0.316 µM
# [11] = second compound 10 µM, first compound 0.0316 µM
# [12] = second compound 10 µM, first compound 0.316 µM
# [13] = second compound 0.0316 µM, first compound 0.1 µM
# [14] = second compound 0.0316 µM, first compound 1 µM
# [15] = second compound 0.0316 µM, first compound 3.16 µM
# [16] = second compound 0.0316 µM, first compound 10 µM
# [17] = second compound 0.1 µM, first compound 0.1 µM
# [18] = second compound 0.1 µM, first compound 1 µM
# [19] = second compound 0.1 µM, first compound 3.16 µM
# [20] = second compound 0.1 µM, first compound 10 µM
# [21] = second compound 0.316 µM, first compound 0.1 µM
# [22] = second compound 0.316 µM, first compound 1 µM
# [23] = second compound 0.316 µM, first compound 3.16 µM
# [24] = second compound 0.316 µM, first compound 10 µM
# [25] = second compound 1 µM, first compound 0.1 µM
# [26] = second compound 1 µM, first compound 1 µM
# [27] = second compound 1 µM, first compound 3.16 µM
# [28] = second compound 1 µM, first compound 10 µM
# [29] = second compound 3.16 µM, first compound 0.1 µM
# [30] = second compound 3.16 µM, first compound 1 µM
# [31] = second compound 3.16 µM, first compound 3.16 µM
# [32] = second compound 3.16 µM, first compound 10 µM
# [33] = second compound 10 µM, first compound 0.1 µM
# [34] = second compound 10 µM, first compound 1 µM
# [35] = second compound 10 µM, first compound 3.16 µM
# [36] = second compound 10 µM, first compound 10 µM
smiles,measurement,setting,value
Cc1[nH]c2ccccc2c1CCNCc1ccc(/C=C/C(=O)NO)cc1 + CN(C)c1ccc(Nc2c3ccc(NC(=O)CCN4CCCC4)cc3nc3cc(NC(=O)CCN4CCCC4)ccc23)cc1,pIC50,second compound 0.0316 µM,7.72
same,pIC50,second compound 0.1 µM,7.99
same,pIC50,second compound 0.316 µM,7.64
same,pIC50,second compound 1 µM,7.83
same,pIC50,second compound 3.16 µM,7.91
same,pIC50,second compound 10 µM,7.93
same,"viability, T/C","second compound 0.0316 µM, first compound 0.000999 µM",104%
same,"viability, T/C","second compound 0.0316 µM, first compound 0.00316 µM",84.2%
same,"viability, T/C","second compound 0.0316 µM, first compound 0.00999 µM",79.3%
same,"viability, T/C",[1],28.5%
same,"viability, T/C","second compound 0.0316 µM, first compound 0.0999 µM",4.27%
same,"viability, T/C",[2],0.32%
same,"viability, T/C","second compound 0.1 µM, first compound 0.000999 µM",84.3%
same,"viability, T/C","second compound 0.1 µM, first compound 0.00316 µM",67.5%
same,"viability, T/C","second compound 0.1 µM, first compound 0.00999 µM",51.4%
same,"viability, T/C",[3],30.1%
same,"viability, T/C","second compound 0.1 µM, first compound 0.0999 µM",3.89%
same,"viability, T/C",[4],0.33%
same,"viability, T/C","second compound 0.316 µM, first compound 0.000999 µM",77.1%
same,"viability, T/C","second compound 0.316 µM, first compound 0.00316 µM",77.7%
same,"viability, T/C","second compound 0.316 µM, first compound 0.00999 µM",70.1%
same,"viability, T/C",[5],42.1%
same,"viability, T/C","second compound 0.316 µM, first compound 0.0999 µM",4.59%
same,"viability, T/C",[6],0.38%
same,"viability, T/C","second compound 1 µM, first compound 0.000999 µM",65.2%
same,"viability, T/C","second compound 1 µM, first compound 0.00316 µM",89%
same,"viability, T/C","second compound 1 µM, first compound 0.00999 µM",54.2%
same,"viability, T/C",[7],31.2%
same,"viability, T/C","second compound 1 µM, first compound 0.0999 µM",5.62%
same,"viability, T/C",[8],0.2%
same,"viability, T/C","second compound 3.16 µM, first compound 0.000999 µM",64%
same,"viability, T/C","second compound 3.16 µM, first compound 0.00316 µM",82.1%
same,"viability, T/C","second compound 3.16 µM, first compound 0.00999 µM",48.8%
same,"viability, T/C",[9],29.6%
same,"viability, T/C","second compound 3.16 µM, first compound 0.0999 µM",4.53%
same,"viability, T/C",[10],0.37%
same,"viability, T/C","second compound 10 µM, first compound 0.000999 µM",53%
same,"viability, T/C","second compound 10 µM, first compound 0.00316 µM",55.4%
same,"viability, T/C","second compound 10 µM, first compound 0.00999 µM",56.6%
same,"viability, T/C",[11],18.1%
same,"viability, T/C","second compound 10 µM, first compound 0.0999 µM",4.24%
same,"viability, T/C",[12],0.47%
Nc1ccn(C2OC(CO)C(O)C2(F)F)c(=O)n1 (stereo unspecified) + CN(C)c1ccc(Nc2c3ccc(NC(=O)CCN4CCCC4)cc3nc3cc(NC(=O)CCN4CCCC4)ccc23)cc1,pIC50,second compound 0.0316 µM,> 7.50
same,pIC50,second compound 0.1 µM,> 7.50
same,pIC50,second compound 0.316 µM,> 7.50
same,pIC50,second compound 1 µM,> 7.50
same,pIC50,second compound 3.16 µM,> 7.50
same,pIC50,second compound 10 µM,> 7.50
same,"viability, T/C",[1],11.5%
same,"viability, T/C",[13],6.58%
same,"viability, T/C",[2],6.05%
same,"viability, T/C",[14],6.75%
same,"viability, T/C",[15],6.08%
same,"viability, T/C",[16],4.2%
same,"viability, T/C",[3],12.7%
same,"viability, T/C",[17],5.68%
same,"viability, T/C",[4],6.81%
same,"viability, T/C",[18],6.8%
same,"viability, T/C",[19],5.93%
same,"viability, T/C",[20],4.32%
same,"viability, T/C",[5],13.1%
same,"viability, T/C",[21],5.27%
same,"viability, T/C",[6],6.2%
same,"viability, T/C",[22],6.03%
same,"viability, T/C",[23],5.63%
same,"viability, T/C",[24],6.07%
same,"viability, T/C",[7],11.6%
same,"viability, T/C",[25],5.93%
same,"viability, T/C",[8],7.47%
same,"viability, T/C",[26],6.02%
same,"viability, T/C",[27],6.39%
same,"viability, T/C",[28],5.81%
same,"viability, T/C",[9],10.2%
same,"viability, T/C",[29],5.96%
same,"viability, T/C",[10],6.33%
same,"viability, T/C",[30],5.69%
same,"viability, T/C",[31],5.78%
same,"viability, T/C",[32],4.9%
same,"viability, T/C",[11],6.83%
same,"viability, T/C",[33],4.85%
same,"viability, T/C",[12],4.16%
same,"viability, T/C",[34],4.94%
same,"viability, T/C",[35],4.47%
same,"viability, T/C",[36],4.53%
O=c1[nH]cc(F)c(=O)[nH]1 + CN(C)c1ccc(Nc2c3ccc(NC(=O)CCN4CCCC4)cc3nc3cc(NC(=O)CCN4CCCC4)ccc23)cc1,pIC50,second compound 0.0316 µM,5.19
same,pIC50,second compound 0.1 µM,5.17
same,pIC50,second compound 0.316 µM,5.19
same,pIC50,second compound 1 µM,5.23
same,pIC50,second compound 3.16 µM,5.21
same,pIC50,second compound 10 µM,5.43
same,"viability, T/C",[1],112%
same,"viability, T/C",[13],96.7%
same,"viability, T/C",[2],104%
same,"viability, T/C",[14],82.3%
same,"viability, T/C",[15],90.6%
same,"viability, T/C",[16],27.7%
same,"viability, T/C",[3],97.6%
same,"viability, T/C",[17],94%
same,"viability, T/C",[4],83.1%
same,"viability, T/C",[18],84.3%
same,"viability, T/C",[19],90.4%
same,"viability, T/C",[20],29.8%
same,"viability, T/C",[5],92.1%
same,"viability, T/C",[21],87.8%
same,"viability, T/C",[6],96.8%
same,"viability, T/C",[22],88.2%
same,"viability, T/C",[23],83%
same,"viability, T/C",[24],29.1%
same,"viability, T/C",[7],69.5%
same,"viability, T/C",[25],72%
same,"viability, T/C",[8],78.8%
same,"viability, T/C",[26],90.8%
same,"viability, T/C",[27],90.4%
same,"viability, T/C",[28],24.2%
same,"viability, T/C",[9],73.3%
same,"viability, T/C",[29],84.8%
same,"viability, T/C",[10],94.1%
same,"viability, T/C",[30],86.2%
same,"viability, T/C",[31],81%
same,"viability, T/C",[32],27.7%
same,"viability, T/C",[11],66.5%
same,"viability, T/C",[33],58%
same,"viability, T/C",[12],52.8%
same,"viability, T/C",[34],70.1%
same,"viability, T/C",[35],55.2%
same,"viability, T/C",[36],16.4%
